This note sets out measurements from patent publication US20030186352A1, “Apicomplexan chorismate synthase sequences and an inhibitor of the shikimate pathway” (priority 1998, published 2003).

≈ marks a conversion by molar mass, not a printed value.

The subject of data set [1] is mutant R5 strain of T. gondii. The experiment in a line: Growth of mutant R5 strain of T. gondii in HFF, uracil uptake over 8 days. The data set is classed as cell-based, Toxoplasma gondii. The conditions noted are these: 20 mM gabaculine or P/S, 8 days in culture. As for the experimental part: Improvements were developed in the assays reported by Mack et al. (1984) and Holfels et al. (1994) to measure T. gondii replication in tissue culture. The improvements are based on microscopic visual imspection of infected and inhibitor treated cultures, and on quantitation of nucleic acid synthesis of the parasite by measure intake of ^3H uracil onto the parasite's nucleic acid. Uracil is not utilized by mammalian cells. […]
First the toxicity of gabaculine was assessed by its ability to prevent growth of human foreskin fibroblasts (HFF) as measured by ^3H-thymidine uptake and microscopic evaluation. […] Parasite growth was measured by the ability to incorporate 3H-uracil during the last 18 hours of culture. In addition, parasite growth was evaluated microscopically in Giemsa stained slides.
This mutant strain is atovaquone resistant and posseses certain characterisitics of the tachyzoite stage and certain characteristics of the bradyzoite stage. T. gondii growth is measure by their ability to incorporate tritiated uracil and is expressed as counts/minute (CPM) on the Y-axis. […]

In data set [2] the test system is human foreskin fibroblasts (HFF). Kind of data set: Toxicity to human foreskin fibroblasts, tritiated thymidine uptake and microscopy. The data set is classed as cell-based. The conditions noted are these: similar concentrations (20 mM). As for the experimental part:
(§1) In these assays toxicity of a candidate inhibitor was assessed by its ability to prevent growth of human foreskin fibroblasts (HFF) after 4 days and after 8 days as measured by tritiated thymidine uptake and microscopic evaluation. Confluent monolayers of HFF were infected with tachyzoites and bradyzoites. Inhibitor was added one hour later. Non-toxic doses were used in parasite growth inhibition assays. Parasite growth was measured by ability to incorporate tritiated uracil during the last 18 hours of culture.
(§2) First the toxicity of gabaculine was assessed by its ability to prevent growth of human foreskin fibroblasts (HFF) as measured by ^3H-thymidine uptake and microscopic evaluation. Non-toxic doses were used in parasite growth inhibition assays. in vitro parasite growth inhibition assays included confluent monolayers of HFF infected with tachyzoites (RH) or mutant Me49 (R5). Gabaculine was added 1 hour later. Parasite growth was measured by the ability to incorporate 3H-uracil during the last 18 hours of culture. In addition, parasite growth was evaluated microscopically in Giemsa stained slides.
Inhibitor compounds are tested over a range of concentrations for toxicity against mammalian cells by assessing their ability to prevent cell growth as measured by tritiated thymidine uptake and inspection of the monolayer using microscopic evaluation. […]

The test system of the next data set is P. falciparum. The experiment in a line: P. falciparum in vitro growth assay, clone not stated. Format: cell-based, Plasmodium falciparum. As to the method: This assay is performed in folate deficient RPMI 1640 over a 66 hour incubation in plasma as described by Milhous et al. (1985). Both the W2 clone DHFR resistant phenotype and the D6 clone are used (Odula et al., 1988) (Table 3).

A further data set concerns C. parvum. The experiment in a line: C. parvum infection of MDBKF5D2 cell monolayers, immunofluorescence assay at 48 hours. Particulars: for approximate 95% Cl count (mean parasite count per field): media alone ~1800. The data set is classed as cell-based, Cryptosporidium parvum. As to the method:
C. parvum oocysts at 50,000/well were incubated at 37° C. (8% CO2) on confluent MDBKF5D2 cell monolayers in 96 well microtiter plates with the following concentrations of each drug. […] The level of infection of each well was determined and analyzed by an immunofluorescence assay at 48 hours using an antibody to C. parvum sporozoites made in rabbits at a concentration of 0.1%. Fluorescein-conjugated goat anti-rabbit antibody was used at a concentration of 1%.
C. parvum oocysts at 50,000/well were incubated with each drug (PRM=paromomycin which is the positive control, NPMG, gabaculine, SHAM, 8-hydroxyquinoline) at 37° C. (8% carbon dioxide) on confluent MDBKF5D2 cell monolayers in 96 well microtiter plates. The level of infection of each well was determined and analyzed by an immunofluorescence assay at 48 hours using as an antibody C. parvum sporozoite rabbit anti-serum (0.1%), and using fluorescein-conjugated goat anti-rabbit antibody (1%). Data are expressed as mean parasite count/field when 16 fields counted at 10× magnification “s.d. of the mean” (FIG. 6).

Data set [3] deals with T. gondii tachyzoites (RH strain). The experiment in a line: T. gondii growth inhibition in HFF monolayers, tritiated uracil uptake. Format: cell-based, Toxoplasma gondii. As to the method: The improvements are based on microscopic visual imspection of infected and inhibitor treated cultures, and on quantitation of nucleic acid synthesis of the parasite by measure intake of ^3H uracil onto the parasite's nucleic acid. Uracil is not utilized by mammalian cells. […] Only the RH strain tachyzoites, cultured for up to 72 hours, had been used in previously reported assays. The use of Me49, Ptg, and R5 mutant are unique aspects of the methods used in these assays in this invention.
as §1, §2
Confluent monolayers of HFF cells, grown in 96-well plates are infected with T. gondii tachyzoites of the RH strain and serial dilutions of anti-microbial compound are applied 1 hour later. T. gondii growth is assessed in these cultures by their ability to incorporate tritiated uracil (2.5 μCi/well) added during the last 18 hours of culture. After harvesting cells with an automatic cell harvester, uracil incorporation is measured by liquid scintillation.

Data set [4] relates to D6 clone of Plasmodium falciparum. The experiment in a line: P. falciparum in vitro growth assay (Milhous et al.), D6 clone. The data set is classed as cell-based. The conditions noted are these: Plasmodium falciparum, D6 clone.
The subject of a further data set is EPSP synthase. Kind of data set: T. gondii EPSP synthase enzyme assay (HPLC detection of EPSP). Format: biochemical. The conditions noted are these: 1 mM. As for the experimental part:
Assays for 4-aminobenzoate and 4-amino-4-deoxychorismate are performed as described previously.” Enzyme Assays: The 5-enolpyruvylshikimate-3-phosphate (EPSP) synthase assay entailed monitoring the generation of EPSP using HPLC. Reaction components were separated using a Hypersil H3APS2 HPLC column (Hichrom Limited, Reading, UK) and a NaH2PO4 elution gradient (50-400 mM). UV spectra (200-300 nm) of the colume eluate were collected to identify eluants. […] The peaks at 215 nm were integrated; the EPSP produced was quantified using a standard curve of authentic EPSP. Parasite extracts were produced at 4° C. by suspension of pure tachyzoites in extraction buffer (50 mM Tris.HCl, pH 7.5, containing complete TM protease inhibitor cocktail [Boehringer Mannheim, 1 tablet per 50 ml buffer]), sonication 3 times for 3 seconds at 30 second intervals, and centrifugation at 12000 g for 15 min. The resulting supernatant was diluted 6-fold with extraction buffer and loaded onto a ResourceQ column (1 ml, Pharmacia) equilibrated with extraction buffer. The bound protein was eluted in a single step using extraction buffer containing 500 mM Kcl. The eluted material was used for enzyme assay. The assay mix contained 1 mM phosphoenolpyruvate, 1 mM SP and 50 mM HEPES, pH 7.5. […] Protein concentrations of lysates were determined using the Lowry method. […]

Data set [5] deals with W2 clone of Plasmodium falciparum. The experiment in a line: P. falciparum in vitro growth assay (Milhous et al.), W2 clone. Particulars: Plasmodium falciparum, W2. The data set is classed as cell-based.

As for `NC1C=CC=C(C(=O)O)C1` (stereo not drawn) [gabaculine, 3-amino-2,3-dihydrobenzoic acid], in data set [1], the “period over which parasite growth was restricted” value is “over the first 6 days of culture, after which a marked increase in parasite growth was detected”. The “toxicity to the foreskin fibroblasts” value in data set [2] is reported as “no toxicity”. The compound further registered an IC50 in the data set with P. falciparum (Plasmodium falciparum) of at least 45 µg/mL. Also, the “approximate 95% Cl count (mean parasite count per field)” value in the data set with C. parvum (gabaculine 0.2 μg/ml) was about 1300 count/field; with C. parvum (gabaculine 2 μg/ml) it was about 600 count/field; in the data set with C. parvum (gabaculine 20 μg/ml) it was about 200 count/field. In addition, the “parasite growth over the 8 day time course” value in data set [3] (RH, 20 mM gabaculine or P/S, uracil CPM) was “restricted”. Further, the inhibition (commonly the percentage by which the read-out fell short of the control) at 5000 µM in data set [3] (Toxoplasma gondii, 96 h, gabaculine 5 mM, 4 days, medium about 36,000 CPM) was about 60%. Besides, in data set [3] (gabaculine 5 mM, 4 day assay, medium around 45,000 CPM), the “restriction of CPM (tritiated uracil incorporation)” value is given as “around 50%”. In data set [3] (gabaculine 20 mM, 4 days, medium around 45,000, no RH around 2,000 CPM), the “counts (tritiated uracil incorporation)” value is given as “about 5,000 CPM”.
On to `O=C(O)CNCP(=O)(O)O` [NPMG, N-(phosphonomethyl) glycine], for which the results for the IC50 in data set [4] (read-out: IC 50) and in data set [5] were 0.823 µg/mL (≈ 4.87 µM) and 1.72 µg/mL (≈ 10.1 µM), respectively. Moreover, the IC90 is 2.51 µg/mL (≈ 14.8 µM) in data set [4] (read-out: IC 90) and 3.4 µg/mL (≈ 20.1 µM) in data set [5]. For the same compound, in the data set on EPSP synthase, the “inhibition of T. gondii EPSP synthase enzyme activity” value is “inhibition of EPSP synthase enzyme activity”. Besides, the “product rescue of glyphosate inhibition of in vitro growth of asexual erythrocytic forms” value in the data set with P. falciparum (PABA and folate) was “PABA and folate antagonism of growth inhibition”. Further, the “product rescue by PABA of NPMG effect on C. parvum” value in the data set with C. parvum is “not abrogated by PABA”. Besides, the “approximate 95% Cl count (mean parasite count per field)” value is about 1200 count/field in the data set with C. parvum (NPMG 0.45 μg/ml), about 900 count/field with C. parvum (NPMG 4.5 μg/ml) and about 1200 count/field in the data set on C. parvum (NPMG 0.045). Further, the “restriction of CPM (tritiated uracil incorporation)” value in data set [3] (NPMG 3.12 mM, 4 day assay, medium around 72,000) is on record as “around 60%”. Further, the “counts (tritiated uracil incorporation)” value in data set [3] (NPMG 4.5 mM, 4 days, medium around 72,000, no RH around 2,000 CPM) is “about 12,000 CPM”. In addition, the “product rescue by PABA of NPMG inhibition of nucleic acid synthesis” value in data set [3] (PABA at increasing concentrations added to cultures) is given as “PABA abrogates the inhibitory effects”. Besides, in data set [3] (Toxoplasma gondii, 96 h, NPMG 4.5 mM, 4 day assay, read-out: inhibition of parasite growth), the inhibition at 4500 µM was about 80%.
